Assay results reported in ChEMBL document CHEMBL3632469, “Discovery of dihydroquinazolinone derivatives as potent, selective, and CNS-penetrant M(1) and M(4) muscarinic acetylcholine receptors agonists” (Bioorg Med Chem Lett, 2015).

Experiments:
Type in all cases: functional, cell-based
[1] = target: 5-hydroxytryptamine receptor 1A (Homo sapiens) (UniProt P08908); assay: Antagonist activity at 5-HT1a receptor (unknown origin) expressed in CHO cells assessed as calcium mobilization at 3 uM
[2] = target: D(1B) dopamine receptor (Homo sapiens) (UniProt P21918); assay: Agonist activity at dopamine D5 receptor (unknown origin) expressed in CHO cells assessed as calcium mobilization at 3 uM
Chain of D(1B) dopamine receptor (Homo sapiens) (P21918 whole entry): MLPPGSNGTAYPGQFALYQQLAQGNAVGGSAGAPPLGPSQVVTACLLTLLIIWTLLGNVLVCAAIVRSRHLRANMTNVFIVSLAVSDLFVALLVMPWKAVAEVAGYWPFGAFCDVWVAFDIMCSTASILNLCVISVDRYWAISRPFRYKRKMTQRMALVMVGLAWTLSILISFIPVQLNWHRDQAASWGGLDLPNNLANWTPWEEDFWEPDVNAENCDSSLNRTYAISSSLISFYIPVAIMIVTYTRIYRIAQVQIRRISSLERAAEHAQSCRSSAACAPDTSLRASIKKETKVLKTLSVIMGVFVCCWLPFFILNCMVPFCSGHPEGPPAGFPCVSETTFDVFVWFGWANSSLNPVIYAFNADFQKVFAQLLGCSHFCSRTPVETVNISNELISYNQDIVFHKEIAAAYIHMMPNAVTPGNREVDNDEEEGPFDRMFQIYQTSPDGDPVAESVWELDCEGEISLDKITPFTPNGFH

[3] = target: T1, Muscarinic acetylcholine receptor M4 (Homo sapiens) (UniProt P08173); assay: Partial agonist activity at human muscarinic M4 acetylcholine receptor expressed in CHO cells co-expressing Galpha16 assessed as calcium mobilization at 0.3 uM by FLIPR assay
T1 sequence (whole entry): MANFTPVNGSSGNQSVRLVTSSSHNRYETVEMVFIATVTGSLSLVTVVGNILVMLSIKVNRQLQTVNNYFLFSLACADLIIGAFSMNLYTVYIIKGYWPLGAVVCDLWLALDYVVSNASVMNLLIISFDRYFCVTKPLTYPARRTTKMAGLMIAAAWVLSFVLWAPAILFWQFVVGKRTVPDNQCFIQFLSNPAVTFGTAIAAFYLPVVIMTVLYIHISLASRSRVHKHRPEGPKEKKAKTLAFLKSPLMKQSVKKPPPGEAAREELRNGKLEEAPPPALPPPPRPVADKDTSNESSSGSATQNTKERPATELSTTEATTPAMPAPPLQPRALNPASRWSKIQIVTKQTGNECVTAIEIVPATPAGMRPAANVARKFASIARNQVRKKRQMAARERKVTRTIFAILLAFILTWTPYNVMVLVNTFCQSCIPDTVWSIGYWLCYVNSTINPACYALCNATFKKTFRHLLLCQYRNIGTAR

[4] = target: D(2) dopamine receptor (Homo sapiens) (UniProt P14416); assay: Antagonist activity at dopamine D2L receptor (unknown origin) expressed in CHO cells assessed as calcium mobilization at 3 uM
Chain of D(2) dopamine receptor (Homo sapiens) (P14416 whole entry): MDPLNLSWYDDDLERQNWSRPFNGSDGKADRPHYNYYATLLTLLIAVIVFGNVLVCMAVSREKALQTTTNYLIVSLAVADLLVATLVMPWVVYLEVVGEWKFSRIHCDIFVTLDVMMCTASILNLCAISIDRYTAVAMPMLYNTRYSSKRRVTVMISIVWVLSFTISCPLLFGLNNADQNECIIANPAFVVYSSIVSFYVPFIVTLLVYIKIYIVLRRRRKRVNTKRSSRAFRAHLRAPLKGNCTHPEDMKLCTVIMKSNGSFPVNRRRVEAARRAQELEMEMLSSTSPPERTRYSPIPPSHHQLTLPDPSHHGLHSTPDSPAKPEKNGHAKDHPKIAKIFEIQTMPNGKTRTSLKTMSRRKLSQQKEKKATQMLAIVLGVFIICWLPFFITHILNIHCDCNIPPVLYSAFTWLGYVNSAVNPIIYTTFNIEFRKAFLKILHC

[5] = target: Histamine H3 receptor (Homo sapiens) (UniProt Q9Y5N1); assay: Antagonist activity at histamine H3 receptor (unknown origin) expressed in CHO cells assessed as calcium mobilization at 3 uM
Chain of Histamine H3 receptor (Homo sapiens) (Q9Y5N1 whole entry): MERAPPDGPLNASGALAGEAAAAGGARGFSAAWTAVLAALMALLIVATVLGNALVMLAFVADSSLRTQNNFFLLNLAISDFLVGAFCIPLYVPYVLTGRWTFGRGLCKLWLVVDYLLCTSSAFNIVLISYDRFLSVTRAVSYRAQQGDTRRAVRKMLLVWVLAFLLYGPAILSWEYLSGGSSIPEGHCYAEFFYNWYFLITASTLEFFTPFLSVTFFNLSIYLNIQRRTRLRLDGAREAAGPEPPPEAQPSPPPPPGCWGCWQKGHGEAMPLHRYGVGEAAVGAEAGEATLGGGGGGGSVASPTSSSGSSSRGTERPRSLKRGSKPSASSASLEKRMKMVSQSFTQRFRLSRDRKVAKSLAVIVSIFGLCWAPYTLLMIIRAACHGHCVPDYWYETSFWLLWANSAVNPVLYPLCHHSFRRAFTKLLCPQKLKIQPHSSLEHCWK

[6] = target: 5-hydroxytryptamine receptor 1F (Homo sapiens) (UniProt P30939); assay: Agonist activity at 5-HT1F receptor (unknown origin) expressed in CHO cells assessed as calcium mobilization at 3 uM
Chain of 5-hydroxytryptamine receptor 1F (Homo sapiens) (P30939 whole entry): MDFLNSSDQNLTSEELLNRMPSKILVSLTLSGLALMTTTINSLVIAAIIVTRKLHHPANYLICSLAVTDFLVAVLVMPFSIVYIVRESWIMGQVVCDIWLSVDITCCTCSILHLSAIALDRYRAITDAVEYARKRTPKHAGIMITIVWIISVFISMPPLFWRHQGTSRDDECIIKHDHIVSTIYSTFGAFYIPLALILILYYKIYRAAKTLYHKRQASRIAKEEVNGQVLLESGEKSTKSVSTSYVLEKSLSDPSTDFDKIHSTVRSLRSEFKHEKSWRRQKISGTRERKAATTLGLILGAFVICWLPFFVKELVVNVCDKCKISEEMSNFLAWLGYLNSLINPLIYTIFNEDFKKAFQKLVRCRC

Chain of 5-hydroxytryptamine receptor 1A (Homo sapiens) (P08908 whole entry): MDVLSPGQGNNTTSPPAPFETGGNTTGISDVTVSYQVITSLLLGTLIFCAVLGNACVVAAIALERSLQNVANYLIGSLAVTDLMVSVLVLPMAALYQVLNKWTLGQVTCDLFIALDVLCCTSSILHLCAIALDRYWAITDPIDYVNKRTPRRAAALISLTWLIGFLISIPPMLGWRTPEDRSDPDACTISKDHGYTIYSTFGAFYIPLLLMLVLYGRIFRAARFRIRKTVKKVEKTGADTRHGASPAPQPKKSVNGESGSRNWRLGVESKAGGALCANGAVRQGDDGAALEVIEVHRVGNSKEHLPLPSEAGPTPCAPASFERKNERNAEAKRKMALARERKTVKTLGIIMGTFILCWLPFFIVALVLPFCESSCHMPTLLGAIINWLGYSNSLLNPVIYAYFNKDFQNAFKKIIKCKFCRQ

`CCOC(=O)N1[C@@H]2CC[C@H]1C[C@H](CN1CC[C@@H](N3Cc4ccccc4NC3=O)C1)C2` showed an inhibition [1] of -3.46%, an Activity [2] of 0.08% and an Activity [3] of 49%. It also gave an inhibition [4] of 13.2%, an inhibition [5] of 13.7% and an Activity [6] of -0.53%.
